Measurements taken from the OPERA property sets (Mansouri et al. 2018).

Structure (SMILES): O=C1CC(c2ccc(O)c(O)c2)Oc2cccc(O)c21 (configuration not stated)
- logP: 2.81

Structure (SMILES): O=c1cc(-c2ccc(O)c(O)c2)oc2cccc(O)c12
- logP: 3.31

Structure (SMILES): O=c1cc(-c2ccc(O)c(O)c2)oc2cc(O)cc(O)c12
- logP: 2.53

Structure (SMILES): O=C1c2ccc(O)cc2OC(c2ccc(O)c(O)c2)C1O (configuration not stated)
- logP: 0.87

Structure (SMILES): O=c1cc(-c2ccc(O)cc2)oc2cc(O)cc(O)c12
- logP: 3.02

Structure (SMILES): O=C1CC(c2ccc(O)c(O)c2)Oc2cc(O)cc(O)c21 (configuration not stated)
- logP: 2.02

Structure (SMILES): O=C1C[C@@H](c2ccc(O)cc2)Oc2cc(O)cc(O)c21
- logP: 2.52

Structure (SMILES): COc1ccc([C@@H]2CC(=O)c3c(O)cc(O)cc3O2)cc1O
- logP: 2.6

Structure (SMILES): COc1ccc(-c2cc(=O)c3c(O)cc(O[C@@H]4O[C@H](CO[C@@H]5O[C@@H](C)[C@H](O)[C@@H](O)[C@H]5O)[C@@H](O)[C@H](O)[C@H]4O)cc3o2)cc1O
- logP: 0.14

Structure (SMILES): C[C@@H]1O[C@@H](O[C@H]2[C@H](Oc3cc(O)c4c(c3)O[C@H](c3ccc(O)cc3)CC4=O)O[C@H](CO)[C@@H](O)[C@@H]2O)[C@H](O)[C@H](O)[C@H]1O
- logP: -0.44

Structure (SMILES): COc1ccc(-c2cc(=O)c3c(O)cc(O)cc3o2)cc1O
- logP: 3.1

Structure (SMILES): O=c1cc(-c2ccccc2)oc2cccc(O)c12
- logP: 4.3

Structure (SMILES): O=C1CC(c2cccc(O)c2)Oc2cc(O)cc(O)c21 (configuration not stated)
- logP: 2.61

Structure (SMILES): O=C1c2c(O)cc(O)cc2O[C@H](c2ccc(O)c(O)c2)[C@H]1O
- logP: 0.95

Structure (SMILES): Oc1cc(O)c2c(c1)O[C@H](c1ccc(O)c(O)c1)[C@@H](O)C2
- logP: 0.51

Structure (SMILES): O=C1C[C@@H](c2ccc(O)c(O)c2)Oc2cc(O)ccc21
- logP: 1.94

Structure (SMILES): O=c1cc(-c2ccccc2)oc2cc(O)cc(O)c12
- logP: 3.52
